The values below come from PMC11232401, “Characterization of antimalarial activity of artemisinin-based hybrid drugs” (Antimicrobial Agents and Chemotherapy, 2024).

Each structure is given as a SMILES string. Like-named read-outs stand apart in the source and are kept apart here.

Series [1] concerns F32-TEM (ART-sensitive) strain of P. falciparum. The experiment in a line: Standard chemosensitivity assay (SYBR Green I, 48 h). The series is classed as cell-based. The following applies: Plasmodium falciparum, F32, 48 h, read-out: IC50 (nM, mean ± SD) for P. falciparum (48 h), F32-TEM (ART-sensitive). How it is done:
(§1) Compounds were dissolved in DMSO and diluted in RPMI-1640 medium into five different concentrations (0.1–1000 nM). Each well of 96-well plates was filled with 100 µL drug at each concentration and 100 µL synchronized ring-stages of the ART-resistant strain F32-ART or its ART-susceptible twin strain F32-TEM at final parasitemia of 1% and 2% hematocrit. Plates were incubated for 48 h at 37°C and 5% CO2. The drugs were washed out in 1× phosphate-buffered saline (PBS) (Sigma-Aldrich), the plates were frozen and thawed, and then, the lysed parasites were transferred to black 96-well plates. SYBR Green I (Fisher Scientific, Illkirch, France) at a 2× concentration in a lysis buffer (20 mM TRIS base, pH 7.5, 20 mM EDTA, 0.008% wt/vol saponin, 0.08% wt/vol Triton X-100) was then added and the plates were incubated for 1 h at room temperature in the dark. Fluorescence was measured at 485 nm excitation and 528 nm emission in a VICTOR Nivo plate reader (Perkin Elmer, Waltham, USA) and the IC50s values were then calculated using Prism 7 (GraphPad, San Diego, USA).
(§2) ^[a] Parasites were exposed for 48 h of incubation in the presence of drugs, then parasite viability was determined using SYBR Green I. Mean of two independent experiments. DHA = dihydroartemisinin; SD = standard deviation.

The subject of series [2] is F32-ART (ART-resistant) strain of P. falciparum. Described as above. The following applies: Plasmodium falciparum, F32, 48 h. The series is classed as cell-based. As for the experimental part: as §1, §2
The nature of series [3]: In vitro metabolic stability assay in microsomes. Type of series: in vitro ADME. The note with it: for half-life at 1 µM: read-out: Degradation half-life; for microsomal CLint at 1 µM: 0.4 mg/mL. As for the experimental part: In vitro microsomal stability assay was performed in duplicate in a 96-well microtiter plate, using a single-point experiment design ([42]). Test compounds (1 µM) were incubated individually in human (pool of 50, mixed gender), rat (pool of 711, male Sprague Dawley), and mouse (pool of 1,634, male CD1) liver microsomes (Xenotech, Kansas, USA) to a final protein concentration of 0.4 mg/mL, suspended in 0.1 M phosphate buffer (pH 7.4). Incubations were started by the addition of NADPH (1 mM) as a cofactor and shaken for 30 min at 37°C. The reactions were quenched by the addition of 300 µL of ice-cold acetonitrile containing an internal standard (carbamazepine, 0.0236 µg/mL) and centrifuged. The supernatant was transferred to a fresh 96-well plate and analyzed by liquid chromatography-tandem mass spectrometry (LC-MS/MS) (Agilent Rapid Resolution HPLC, AB SCIEX 4500 MS). The relative loss of the parent compound over time was monitored, and plots (concentration vs time) were prepared per compound to determine the first-order rate constant for compound depletion. This was in turn used to calculate half-life, in vitro intrinsic clearance (Clint), and in vivo hepatic extraction ratio ([43]).

The test system of series [4] is F32-TEM (sensitive) early ring-stage parasites. The experiment in a line: Ring-stage survival assay (RSA0-3h). Type of series: cell-based, Plasmodium falciparum. The note with it: 700 nM, 6 h pulse, 66 h growth. How it is done: Early ring-stage parasites (0–3 h post-invasion) of F32-ART and F32-TEM strains highly synchronized by Percoll-Sorbitol treatment were exposed to 700 nM of the drugs or 0.1% DMSO (control) for 6 h. Each drug was tested in duplicate. Parasite pellets were then washed in RPMI-1640 medium before being placed in drug-free culture conditions with 10% human serum and incubated for 66 h ([44]). Survival rates were assessed microscopically by two independent microscopists by counting the parasites in 10,000 RBCs. Three independent experiments were performed.

Series [5] deals with hematin (iron III)-initiated β-hematin formation. The experiment in a line: β-hematin inhibitory activity under oxidizing condition (O-BHIA). Type of series: biochemical. The following applies: hematin as starting reagent; mean (95% CI). How it is done:
The compounds were dissolved in DMSO and diluted in DMSO to six different concentrations (1.0–32 mM). Hemin (Fe^III[PPIX]Cl) (BioXtra, Sigma-Aldrich) was first dissolved in 0.1 M NaOH and then suspended in an 80:20 vol/vol mixture of DMSO and propionate buffer (0.1 M, pH 5.6) to a stock solution at 8 mM. Reduced glutathione (GSH) was dissolved in 0.1 M NaOH and then adjusted to 10 mM using propionate buffer (0.1 M, pH 5.6). For β-hematin inhibitory activity (BHIA) under the reducing condition (R-BHIA), hemin (10 µL) and GSH (10 µL) were distributed in a 96-well plate and homogenized, and the plates were sealed using a thin plastic film and incubated for 1 h at 37°C. Then, 20 µL of the drug was added, and the plates were incubated for 2 h at 37°C. The plastic film was removed after drug incubation, 160 µL propionate buffer (1.0 M, pH 5.6) was added, and plates were incubated for 18 h at 37°C. BHIA under the oxidizing condition (O-BHIA) was prepared in parallel without adding GSH. Controls included wells without drugs and wells containing PBS 1× instead of propionate buffer. Afterward, the plates were centrifuged, the supernatant was discarded, and the pellets of β-hematin crystals were washed twice with pure DMSO and then water. The resulting β-hematin crystals were then dissolved in 200 µL 0.1 M NaOH and diluted to a 1:8 ratio. Aliquots were then transferred into a new plate and read by UV-visible absorbance at […]. Percent of BHIA was calculated in comparison to untreated wells (no drugs), and IC50 was then calculated. Two independent experiments were performed using three replicates of each drug concentration ([46]).
Figure S6: A summary of IC50 values derived from β-hematin inhibitory activity (BHIA). Footnotes for table: ^[a,b^] Values are mean and 95% confidence interval of one experiment, each concentration in triplicate. ^[a] Using heme (Fe[II]PPIX[Cl]) as a starting reagent. ^[b] Using hematin (Fe[III]PPIX[OH]) as a starting reagent. ^[c] […] CQ = chloroquine. R-BHIA = reducing β-hematin inhibitory activity. O-BHIA = oxidizing β-hematin inhibitory activity.

Setting [6] is: read-out: IC50 (nM, mean ± SD) for P. falciparum (48 h), F32-ART (ART-resistant).
[7] abbreviates: both sexes, pH 7.4, human liver microsomes.
Setting [8] is: both sexes, human liver microsomes, pH 7.4.
Setting [9] is: male, CD1, pH 7.4, mouse liver microsomes.
The mark [10] stands for this setting: male, CD1, mouse liver microsomes, pH 7.4.
The mark [11] stands for this setting: male, Sprague Dawley, pH 7.4, rat liver microsomes.
Setting [12] is: male, Sprague Dawley, rat liver microsomes, pH 7.4.

Regarding `CC1CCC2C(C)C(OC(=O)CCC(=O)OCCNc3ccnc4cc(Cl)ccc34)OC3OC4(C)CCC1C32OO4` (stereo not drawn) [Hybrid 2], the values for the IC50 in series [1] and in series [2] (setting [6]) were 4.8 ± 1.2 nM and 4.5 ± 2.5 nM, respectively. Also, the half-life at 1 µM in series [3] (setting [7]) stood at 4 min; in series [3] (setting [9]), 6 min; in series [3] (setting [11]) it was 5 min. Further, the microsomal CLint at 1 µM in series [3] (setting [8]) worked out at 479 µL/min/mg; in series [3] (setting [10]), 275 µL/min/mg; in series [3] (setting [12]), 376 µL/min/mg. The “Drug remaining after 30 min” value in series [3] (human liver microsomes) is 0.3%; in series [3] (mouse liver microsomes) it was 4%; in series [3] (rat liver microsomes) it was 1%. The “Survival rate (%) from the RSA0-3h, F32-TEM (sensitive)” value (“Survival rate (%) from the RSA0-3h” for short) in series [4] is reported as 0.04 ± 0.02%.
For `COCCOCCOCCOCCn1c(-c2ccc(-n3cc(-c4ccc(OC5OC6OC7(C)CCC8C(C)CCC(C5C)C68OO7)cc4)nn3)cc2)nc2ccccc21` (stereo not drawn) [Hybrid 1], the values for the IC50 in series [1], in series [2] (setting [6]) and in series [5] were 2.6 ± 0.6 nM, 4.2 ± 1.3 nM and greater than 1000 µM, respectively. The results for the half-life at 1 µM in series [3] (setting [7]), in series [3] (setting [9]) and in series [3] (setting [11]) were 5 min, 7 min and 9 min, respectively. The microsomal CLint at 1 µM is 379 µL/min/mg in series [3] (setting [8]), 240 µL/min/mg in series [3] (setting [10]) and 186 µL/min/mg in series [3] (setting [12]). Further, the “Drug remaining after 30 min” value in series [3] (human liver microsomes) amounted to 1%; in series [3] (mouse liver microsomes) it was 6%; in series [3] (rat liver microsomes), 10%. The “Survival rate (%) from the RSA0-3h” value in series [4] is 0.05 ± 0.03%.
As to `C[C@H]1[C@@H](O)O[C@@H]2O[C@@]3(C)CC[C@H]4[C@H](C)CC[C@@H]1[C@@]24OO3` [DHA, dihydroartemisinin, reference compound], the IC50 in series [1] was 2 ± 0.2 nM; in series [2] (setting [6]), 0.8 ± 0.8 nM; in series [2] (read-out: IC50 in the standard chemosensitivity assay) it was less than 5 nM; in series [5], greater than 1000 µM. The “Survival rate (%) from the RSA0-3h” value in series [4] stood at 0.04 ± 0.03%.

A word on the IC50: it is the concentration that gives 50% inhibition. For orientation: half-life means the time needed for the level to fall by half in the phase considered. A word on the microsomal CLint: it is the rate of metabolic loss divided by the concentration. The low end stands for slow turnover, the high end for rapid turnover.
